Key:
[1] = ABTS radical cation scavenging assay; conditions: read-out: IC50 (μM) ± SEM ABTS
eqBChE = eqBChE (Equus caballus, UniProt P81908); experiment: biochemical
human MAO-A = molecular target: T1, human MAO-A (Homo sapiens, UniProt P21397); experiment: MAO-A inhibition assay; assay type: biochemical
T1 sequence (P21397 1-527): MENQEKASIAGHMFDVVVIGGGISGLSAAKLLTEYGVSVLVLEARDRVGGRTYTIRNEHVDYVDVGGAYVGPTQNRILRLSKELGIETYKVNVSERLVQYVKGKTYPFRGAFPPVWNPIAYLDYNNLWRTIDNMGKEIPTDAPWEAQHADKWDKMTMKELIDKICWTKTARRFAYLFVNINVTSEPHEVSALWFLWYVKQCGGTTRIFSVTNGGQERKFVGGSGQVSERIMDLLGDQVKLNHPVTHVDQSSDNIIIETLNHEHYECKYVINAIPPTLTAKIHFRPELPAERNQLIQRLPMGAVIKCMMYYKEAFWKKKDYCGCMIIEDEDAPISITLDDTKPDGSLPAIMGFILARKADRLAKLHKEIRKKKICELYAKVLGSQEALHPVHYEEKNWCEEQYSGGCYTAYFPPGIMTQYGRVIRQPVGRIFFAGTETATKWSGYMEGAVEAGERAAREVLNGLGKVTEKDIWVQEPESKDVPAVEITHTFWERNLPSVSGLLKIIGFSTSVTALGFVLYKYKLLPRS

[2] = DPPH radical scavenging assay; conditions: read-out: IC50 (μM) ± SEM DPPH
[3] = Ferric ion reducing antioxidant power; conditions: μM equivalent to the standard antioxidant ascorbic acid
human MAO-B = molecular target: T2, human MAO-B (Homo sapiens, UniProt P27338); experiment: MAO-B inhibition assay; assay type: biochemical; conditions: for SI = IC50 of MAO-A/IC50 of MAO-B: selectivity index
T2 sequence (P27338 1-520): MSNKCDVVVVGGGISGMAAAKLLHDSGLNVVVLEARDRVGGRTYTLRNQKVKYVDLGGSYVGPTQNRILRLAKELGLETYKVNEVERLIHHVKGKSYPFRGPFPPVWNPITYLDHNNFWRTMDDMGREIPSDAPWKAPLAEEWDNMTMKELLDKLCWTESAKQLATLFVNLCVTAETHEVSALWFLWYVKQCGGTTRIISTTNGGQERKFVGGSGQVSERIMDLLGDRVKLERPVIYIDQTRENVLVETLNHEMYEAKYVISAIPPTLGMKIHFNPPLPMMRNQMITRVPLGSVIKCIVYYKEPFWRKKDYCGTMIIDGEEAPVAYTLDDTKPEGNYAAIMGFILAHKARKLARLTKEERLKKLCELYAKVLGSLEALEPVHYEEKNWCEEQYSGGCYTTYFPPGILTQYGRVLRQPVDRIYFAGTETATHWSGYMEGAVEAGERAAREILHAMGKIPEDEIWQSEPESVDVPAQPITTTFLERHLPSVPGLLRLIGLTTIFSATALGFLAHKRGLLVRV

eeAChE = eeAChE (Electrophorus electricus, UniProt O42275); experiment: Cholinesterase inhibition, Ellman's assay; assay type: biochemical, electric eel; conditions: for SI = IC50 of BChE/IC50 of AChE: selectivity index
SH-SY5Y cells = experiment: SH-SY5Y neuroblastoma cell toxicity; assay type: cell-based, human; conditions: for neurotoxicity / cytotoxicity on SH-SY5Y cells: 10–100 μM, 48 h incubation, MTT
Aβ1–42 peptide = Aβ1–42 peptide (Homo sapiens, UniProt P05067); experiment: ThT fluorescence assay for self-mediated Aβ1–42 aggregation; assay type: biochemical; conditions: for inhibition of amyloid beta fibrils: after a 24-hour equimolar administration, ThT fluorescence (Fig. 4)
COX-2 = molecular target: T3, COX-2 (Homo sapiens, UniProt P35354); experiment: biochemical
T3 sequence (P35354 18-604): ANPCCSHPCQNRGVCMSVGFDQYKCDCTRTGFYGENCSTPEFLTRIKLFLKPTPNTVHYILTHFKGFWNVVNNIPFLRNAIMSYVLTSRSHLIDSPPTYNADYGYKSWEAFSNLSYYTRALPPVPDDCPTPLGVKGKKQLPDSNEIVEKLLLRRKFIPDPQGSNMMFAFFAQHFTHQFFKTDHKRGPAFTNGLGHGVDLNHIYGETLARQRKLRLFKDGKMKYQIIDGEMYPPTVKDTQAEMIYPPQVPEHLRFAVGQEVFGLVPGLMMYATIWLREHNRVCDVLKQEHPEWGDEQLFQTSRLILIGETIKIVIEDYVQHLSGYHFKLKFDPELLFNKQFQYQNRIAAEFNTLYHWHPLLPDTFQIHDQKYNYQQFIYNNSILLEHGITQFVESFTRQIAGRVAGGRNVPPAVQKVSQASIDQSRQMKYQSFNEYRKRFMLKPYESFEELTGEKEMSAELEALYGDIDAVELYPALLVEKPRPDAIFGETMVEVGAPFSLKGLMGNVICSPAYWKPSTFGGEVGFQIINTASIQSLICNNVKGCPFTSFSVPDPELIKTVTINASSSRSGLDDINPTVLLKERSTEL

HEK-293 cells = experiment: Cell viability assay on normal human embryonic HEK-293 cells; assay type: cell-based; conditions: 1, 10, 20, 40 and 100 μM, MTT
[4] = In vivo antioxidant potential in mice; conditions: 5 mg kg^−1, SOD, CAT, GSH
CAT = experiment: In vivo CAT activity in brain of mice; conditions: high-test dose
SOD = experiment: In vivo SOD level in brain of mice; conditions: 5 mg kg^−1
MDA = experiment: In vivo MDA level in brain of mice; conditions: 5 mg kg^−1
GSH-Px = experiment: In vivo GSH-Px activity in brain of mice; conditions: 5 mg kg^−1

Sequence of Aβ1–42 peptide (P05067 672-713): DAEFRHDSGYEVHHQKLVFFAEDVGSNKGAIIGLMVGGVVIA
Sequence of eeAChE (O42275 24-633): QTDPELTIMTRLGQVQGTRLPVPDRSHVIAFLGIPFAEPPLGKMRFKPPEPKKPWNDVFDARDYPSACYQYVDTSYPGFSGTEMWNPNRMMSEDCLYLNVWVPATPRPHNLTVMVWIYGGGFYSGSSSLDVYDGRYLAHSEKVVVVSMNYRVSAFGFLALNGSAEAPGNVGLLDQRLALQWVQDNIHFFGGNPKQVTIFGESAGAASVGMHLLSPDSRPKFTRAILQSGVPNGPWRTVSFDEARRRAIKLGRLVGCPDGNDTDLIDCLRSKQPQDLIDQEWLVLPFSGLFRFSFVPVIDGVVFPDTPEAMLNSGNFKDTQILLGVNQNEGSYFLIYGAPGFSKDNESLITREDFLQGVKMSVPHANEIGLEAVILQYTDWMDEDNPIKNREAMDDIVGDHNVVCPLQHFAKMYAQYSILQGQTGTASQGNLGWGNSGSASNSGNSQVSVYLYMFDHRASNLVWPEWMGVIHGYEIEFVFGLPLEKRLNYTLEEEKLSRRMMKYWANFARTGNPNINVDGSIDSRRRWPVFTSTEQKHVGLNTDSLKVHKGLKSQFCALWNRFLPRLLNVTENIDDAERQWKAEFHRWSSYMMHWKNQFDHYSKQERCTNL
Sequence of eqBChE (P81908 whole entry): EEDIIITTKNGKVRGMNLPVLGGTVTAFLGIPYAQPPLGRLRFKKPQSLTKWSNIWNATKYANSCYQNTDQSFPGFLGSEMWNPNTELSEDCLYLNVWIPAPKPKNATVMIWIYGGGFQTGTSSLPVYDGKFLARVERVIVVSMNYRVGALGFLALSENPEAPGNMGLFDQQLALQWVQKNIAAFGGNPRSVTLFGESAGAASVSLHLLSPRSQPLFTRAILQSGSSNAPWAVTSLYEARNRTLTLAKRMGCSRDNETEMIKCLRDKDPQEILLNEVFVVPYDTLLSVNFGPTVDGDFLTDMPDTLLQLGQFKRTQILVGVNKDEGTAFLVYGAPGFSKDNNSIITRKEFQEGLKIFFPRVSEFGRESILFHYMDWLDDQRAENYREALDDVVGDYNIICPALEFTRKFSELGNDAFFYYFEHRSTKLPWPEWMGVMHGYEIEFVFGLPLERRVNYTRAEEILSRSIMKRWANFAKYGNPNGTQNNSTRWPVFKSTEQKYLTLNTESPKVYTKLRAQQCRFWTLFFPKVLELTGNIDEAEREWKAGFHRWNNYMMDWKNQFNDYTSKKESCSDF

Structure (SMILES)	IC50 [1] [µM]	IC50 (eqBChE) [µM]	IC50 (human MAO-A) [µM]	IC50 [2] [µM]	FRAP value [3] [µM]	IC50 (human MAO-B) [µM]	SI = IC50 of MAO-A/IC50 of MAO-B (human MAO-B)	IC50 (eeAChE) [µM]	SI = IC50 of BChE/IC50 of AChE (eeAChE)	neurotoxicity / cytotoxicity on SH-SY5Y cells (SH-SY5Y cells)	protective ability on SH-SY5Y (SH-SY5Y cells; at all concentrations (10–100 μM))	inhibition of amyloid beta fibrils (Aβ1–42 peptide)	IC50 (Aβ1–42 peptide) [µM]	IC50 (COX-2) [µM]	cytotoxic effect on viability of HEK-293 cells (HEK-293 cells)	in vivo antioxidant activity [4]	CAT activity (CAT) [U mL^−1]	brain's SOD level (SOD) [U mL^−1]	MDA concentration in animal brains (MDA) [nmol/mL]	brain GSH-Px activity (GSH-Px)
COc1cc(/C=C/C(=O)Nc2nc3ccc(O)cc3s2)ccc1O [Compound 21, (E)-3-(4-Hydroxy-3-methoxyphenyl)-N-(6-hydroxybenzo[d]thiazol-2-yl)acrylamide]	6.29 ± 0.09	43.1 ± 1.09	37.1 ± 1.03	14.44 ± 0.13	36.01	0.491 ± 0.024	75	29.84 ± 0.1	1	–	–	–	–	–	–	–	–	–	–	–
C#CCN[C@@H]1CCc2ccccc21 [rasigiline, rasagiline, reference compound]	–	–	–	–	–	–	–	–	–	no cytotoxicity	–	–	–	–	–	–	–	–	–	–
CC(NC(=O)/C=C/c1ccc(-c2ccccc2)cc1)C(N)=O (stereo not drawn) [Compound 20, (E)-3-([1,1′-Biphenyl]-4-yl)-N-(1-amino-1-oxopropan-2-yl)acryl-amide]	77.1 ± 1.37	84.1 ± 1.32	10 ± 0.925	–	44.81	0.513 ± 0.07	19	13.51 ± 0.1	6	–	–	–	–	–	–	–	–	–	–	–
O=C(O)c1cc(O)c(O)c(O)c1 [Gallic acid, reference compound]	35.2 ± 1.19	–	–	35.2 ± 1.04	–	–	–	–	–	–	–	–	–	–	–	–	–	–	–	–
COc1cc(/C=C/C(=O)O)ccc1O [Ferulic acid, trans-4-hydroxy-3-methoxycinnamic acid, reference compound]	–	–	–	69.8 ± 1.48	–	–	–	–	–	–	–	–	–	–	–	–	–	–	–	–
CC(NC(=O)c1cc(O)c(O)c(O)c1)C(N)=O (stereo not drawn) [Compound 27, N-(1-Amino-1-oxopropan-2-yl)-3,4,5-trihydroxybenzamide]	20.4 ± 0.3	–	–	14.6 ± 0.52	–	30.2 ± 1.18	–	49.03 ± 0.1	–	–	40–50%	–	–	–	–	–	–	–	–	–
COc1cc(/C=C/C(=O)CC(=O)/C=C/c2ccc(O)c(OC)c2)ccc1O [Curcumin, reference compound]	–	–	–	–	–	–	–	–	–	–	–	around 60%	–	–	–	–	–	–	–	–
NS(=O)(=O)c1ccc(NC(=O)/C=C/c2ccc(-c3ccccc3)cc2)cc1 [Compound 26, (E)-3-([1,1′-Biphenyl]-4-yl)-N-(4-sulfamoylphenyl)acrylamide]	40.6 ± 1.11	1.03 ± 0.031	19.9 ± 1.17	–	24.7	0.327 ± 0.011	60	0.89 ± 0.1	1	–	–	–	19.52 ± 0.18	2.19 ± 0.1	not showed in cytotoxic effect	–	–	–	–	–
Cc1c(C)c2c(c(C)c1O)CCC(C)(C(=O)O)O2 (stereo not drawn) [trolox, reference compound]	–	–	–	–	–	–	–	–	–	no cytotoxicity	–	–	–	–	–	significant antioxidant potential	–	–	–	–
O=C(/C=C/c1ccc(-c2ccccc2)cc1)Nc1nc2ccc(O)cc2s1 [Compound 23, (E)-3-([1,1′-Biphenyl]-4-yl)-N-(6-hydroxybenzo[d]thiazol-2-yl)acryl-amide]	12.1 ± 0.14	15.6 ± 0.901	10 ± 0.5	18.19 ± 0.11	53.57	–	270	0.071 ± 0.1	220	did not show any apparent neurotoxicity	–	approximately 30%	23.1 ± 1.05	14.4 ± 0.28	not showed in cytotoxic effect	good to moderate in vivo antioxidant activity	–	–	–	–
COc1cc(/C=C/C(=O)Nc2ccc(S(N)(=O)=O)cc2)ccc1O [Compound 24, (E)-3-(4-Hydroxy-3-methoxyphenyl)-N-(4-sulfamoylphenyl)acryl-amide]	48.8 ± 1.2	58.2 ± 1.41	76.6 ± 1.22	21.21 ± 0.15	14.75	0.142 ± 0.011	539	10.74 ± 0.1	5	–	–	–	–	–	–	–	–	–	–	–
COc1cc(/C=C/C(=O)NC(C)C(N)=O)ccc1O (stereo not drawn) [Compound 18, (E)-N-(1-Amino-1-oxopropan-2-yl)-3-(4-hydroxy-3-methoxyphenyl)acrylamide]	45.1 ± 1.77	–	–	58.3 ± 1.21	29.84	10 ± 1.03	–	58.4 ± 0.09	–	–	–	–	–	–	–	–	–	–	–	–
O=C1O[C@H]([C@@H](O)CO)C(O)=C1O [Ascorbic acid, reference compound]	6.08 ± 0.21	–	–	4.89 ± 0.09	90.89	–	–	–	–	–	–	–	–	–	–	–	–	–	–	–
NS(=O)(=O)c1ccc(NC(=O)c2cc(O)c(O)c(O)c2)cc1 [Compound 29, 3,4,5-Trihydroxy-N-(4-sulfamoylphenyl)benzamide]	23.5 ± 1.04	34 ± 1.18	21.4 ± 0.316	10.8 ± 0.63	–	0.395 ± 0.34	54	3.64 ± 0.1	9	did not show any apparent neurotoxicity	–	–	–	–	–	not determined to be active	–	–	–	–
COc1cc(/C=C/C(=O)Nc2ccc(S(N)(=O)=O)cc2)ccc1OCc1ccccc1 [Compound 25, (E)-3-(4-(Benzyloxy)-3-methoxyphenyl)-N-(4-sulfamoylphenyl)acrylamide]	20.7 ± 1.11	14.1 ± 0.639	28.2 ± 1.09	25 ± 1.16	20.07	0.066 ± 0.004	426	0.835 ± 0.1	17	did not show any apparent neurotoxicity	–	~50%	14.1 ± 0.24	0.74 ± 0.13	not showed in cytotoxic effect	–	–	–	–	–
O=C(Nc1nc2ccc(O)cc2s1)c1cc(O)c(O)c(O)c1 [Compound 28, 3,4,5-Trihydroxy-N-(6-hydroxybenzo[d]thiazol-2-yl)benzamide]	2.06 ± 0.11	9.25 ± 0.506	10.1 ± 0.239	1.77 ± 0.04	45.24	0.219 ± 0.34	46	1.48 ± 0.1	6	did not show any apparent neurotoxicity	–	around 60%	11.29 ± 0.08	10.4 ± 0.13	not showed in cytotoxic effect	good to moderate in vivo antioxidant activity	97	94.20	1.15	increases the antioxidant enzymatic activity of GSH-Px
